Assay results from patent US10875895B2, “Antibacterial cell-penetrating peptides” (Purdue Research Foundation, priority 2018, dated 2020).
Converted amounts (≈) assume the structure as drawn. Read-outs that look alike come from different tables or passages of the source. Non-standard residues stand in square brackets, D forms with d. Residues, ends and D or L forms follow the SMILES beside them. *: point of attachment. X1 = O=C(O)c1cc(C(=O)*)ccc1-c1c2ccc(=O)cc-2oc2cc(O)ccc12; Pro(trans-4-guanidino) = N=C(N)N[C@H]1CN[C@H](C(=O)O)C1; Propyl(3-guanidino) = N=C(N)NCCC*; Hyp = O=C(O)[C@@H]1C[C@@H](O)CN1; Isobutyl = CC(C)C*

Experiments:
[1] = test system: L. monocytogenes 191112
[2] = test system: S. enteritidis
[3] = test system: K. pneumonia NR 41928
[4] = test system: S. aureus ATCC 6538
[5] = test system: S. aureus NRS 382
[6] = test system: P. aeruginosa 50573
[7] = test system: A. baumannii 1747
[8] = test system: A baumannii 19606
[9] = test system: S. epidermidis NRS 101
[10] = test system: VRSA 10
[11] = test system: P. aeruginosa 48982
[12] = test system: P. aeruginosa 31041
[13] = test system: S. aureus RN 4220; assay: MIC, broth microdilution (CLSI); type: cell-based
Description: (§1) The minimum inhibitory concentration (MIC) of the peptides (in uM/ml) and control antibiotics (vancomycin and gentamicin) in μg/mL, were determined using the broth microdilution method according to the guidelines of the Clinical and Laboratory Standards Institute (CLSI) guidelines. See CLSI. 2007. Methods for dilution antimicrobial susceptibility tests for bacteria that grow aerobically; approved standard M7-A7. CLSI, Wayne, Pa.

[14] = test system: S. flexneri 1a; assay: MIC, broth microdilution (CLSI); type: cell-based; conditions: enteric pathogens
Description: as §1

[15] = test system: A. baumannii 1605
[16] = test system: P. aeruginosa 31040
[17] = test system: E. coli 21922
[18] = test system: K. pneumoniae 1706
[19] = test system: S. aureus NRS 384
[20] = test system: E. faecium 700221
[21] = test system: K. pneumonia NR 41920
[22] = test system: E. cloacae 1134
[23] = test system: S. typhimurium LT2
[24] = test system: VRSA 5
[25] = test system: S. aureus NRS 383
[26] = test system: P. aeruginosa 31040; assay: microbe, parasite or virus in culture; conditions: Pseudomonas aeruginosa
[27] = test system: VRSA 10; assay: microbe, parasite or virus in culture; conditions: Staphylococcus aureus
[28] = test system: P. aeruginosa 31041; assay: microbe, parasite or virus in culture; conditions: Pseudomonas aeruginosa
[29] = test system: S. aureus NRS 383; assay: microbe, parasite or virus in culture; conditions: Staphylococcus aureus, NRS383
[30] = test system: P. aeruginosa 50573; assay: microbe, parasite or virus in culture; conditions: Pseudomonas aeruginosa
[31] = test system: A. baumannii 1747; assay: microbe, parasite or virus in culture; conditions: Acinetobacter baumannii
[32] = test system: VRSA 5; assay: microbe, parasite or virus in culture; conditions: Staphylococcus aureus
[33] = test system: A. baumannii 1605; assay: microbe, parasite or virus in culture; conditions: Acinetobacter baumannii
[34] = test system: A baumannii 19606; assay: microbe, parasite or virus in culture; conditions: Acinetobacter baumannii
[35] = test system: L. monocytogenes 191112; assay: microbe, parasite or virus in culture; conditions: Listeria monocytogenes
[36] = test system: S. typhimurium LT2; assay: microbe, parasite or virus in culture; conditions: Salmonella enterica
[37] = test system: S. aureus NRS 382; assay: microbe, parasite or virus in culture; conditions: Staphylococcus aureus, NRS382
[38] = test system: S. enteritidis; assay: microbe, parasite or virus in culture; conditions: Salmonella enterica
[39] = test system: S. epidermidis NRS 101; assay: microbe, parasite or virus in culture; conditions: Staphylococcus epidermidis, NRS101
[40] = test system: E. coli 21922; assay: microbe, parasite or virus in culture; conditions: Escherichia coli
[41] = test system: K. pneumoniae 1706; assay: microbe, parasite or virus in culture; conditions: Klebsiella pneumoniae
[42] = test system: S. aureus ATCC 6538; assay: microbe, parasite or virus in culture; conditions: Staphylococcus aureus, ATCC6538
[43] = test system: K. pneumonia NR 41928; assay: microbe, parasite or virus in culture; conditions: Klebsiella pneumoniae, NR41928
[44] = test system: P. aeruginosa 48982; assay: microbe, parasite or virus in culture; conditions: Pseudomonas aeruginosa
[45] = test system: E. faecium 700221; assay: microbe, parasite or virus in culture; conditions: Enterococcus faecium
[46] = test system: S. aureus NRS 384; assay: microbe, parasite or virus in culture; conditions: Staphylococcus aureus, NRS384
[47] = test system: K. pneumonia NR 41920; assay: microbe, parasite or virus in culture; conditions: Klebsiella pneumoniae, NR41920
[48] = test system: E. cloacae 1134; assay: microbe, parasite or virus in culture; conditions: Enterobacter cloacae

## CC(C)CO[C@@H]1C[C@@H](C(=O)N2C[C@H](NC(=N)N)C[C@H]2C(=O)N2C[C@H](NC(=N)N)C[C@H]2C(=O)N2C[C@H](OCC(C)C)C[C@H]2C(=O)N2C[C@H](NC(=N)N)C[C@H]2C(=O)N2C[C@H](NC(=N)N)C[C@H]2C(=O)N2C[C@H](OCC(C)C)C[C@H]2C(=O)N2C[C@H](NC(=N)N)C[C@H]2C(=O)N2C[C@H](NC(=N)N)C[C@H]2C(=O)N2C[C@H](OCC(C)C)C[C@H]2C(=O)N2C[C@H](NC(=N)N)C[C@H]2C(=O)N2C[C@H](NC(=N)N)C[C@H]2C(=O)N2C[C@H](OCC(C)C)C[C@H]2C(N)=O)N(C(=O)CNC(=O)c2ccc(-c3c4ccc(=O)cc-4oc4cc(O)ccc34)c(C(=O)O)c2)C1 [Example 1] (X1-G[Hyp](Isobutyl)[Pro(trans-4-guanidino)][Pro(trans-4-guanidino)][Hyp](Isobutyl)[Pro(trans-4-guanidino)][Pro(trans-4-guanidino)][Hyp](Isobutyl)[Pro(trans-4-guanidino)][Pro(trans-4-guanidino)][Hyp](Isobutyl)[Pro(trans-4-guanidino)][Pro(trans-4-guanidino)][Hyp](Isobutyl)-NH2)
[1]; 191112
  MIC: 2 µM (≈ 5.02 µg/mL)
[2]
  MIC: 1 µM (≈ 2.51 µg/mL)
[3]
  MIC: 1 µM (≈ 2.51 µg/mL)
[4]; ATCC 6538
  MIC: 1 µM (≈ 2.51 µg/mL)
[5]; NRS 382
  MIC: 2 µM (≈ 5.02 µg/mL)
[6]; 50573
  MIC: 2 µM (≈ 5.02 µg/mL)
[7]; 1747
  MIC: 0.5 µM (≈ 1.26 µg/mL)
[8]; 19606
  MIC: 1 µM (≈ 2.51 µg/mL)
[9]; NRS 101
  MIC: 1 µM (≈ 2.51 µg/mL)
[10]
  MIC: 2 µM (≈ 5.02 µg/mL)
[11]; 48982
  MIC: 4 µM (≈ 10 µg/mL)
[12]; 31041
  MIC: 2 µM (≈ 5.02 µg/mL)
[13]
  MIC: 2 µM (≈ 5.02 µg/mL)
[14]
  MIC: 1 µM (≈ 2.51 µg/mL)
[15]; 1605
  MIC: 0.5 µM (≈ 1.26 µg/mL)
[16]; 31040
  MIC: 2 µM (≈ 5.02 µg/mL)
[17]; 21922
  MIC: 1 µM (≈ 2.51 µg/mL)
[18]; 1706
  MIC: 8 µM (≈ 20.1 µg/mL)
[19]; NRS 384
  MIC: 2 µM (≈ 5.02 µg/mL)
[20]; 700221
  MIC: 1 µM (≈ 2.51 µg/mL)
[21]
  MIC: 4 µM (≈ 10 µg/mL)
[22]; 1134
  MIC: 2 µM (≈ 5.02 µg/mL)
[23]; LT2
  MIC: 1 µM (≈ 2.51 µg/mL)
[24]
  MIC: 2 µM (≈ 5.02 µg/mL)
[25]; NRS 383
  MIC: 2 µM (≈ 5.02 µg/mL)

## CC(C)CO[C@@H]1C[C@@H](C(=O)N2C[C@H](OCCCNC(=N)N)C[C@H]2C(=O)N2C[C@H](OCCCNC(=N)N)C[C@H]2C(=O)N2C[C@H](OCC(C)C)C[C@H]2C(=O)N2C[C@H](OCCCNC(=N)N)C[C@H]2C(=O)N2C[C@H](OCCCNC(=N)N)C[C@H]2C(=O)N2C[C@H](OCC(C)C)C[C@H]2C(=O)N2C[C@H](OCCCNC(=N)N)C[C@H]2C(=O)N2C[C@H](OCCCNC(=N)N)C[C@H]2C(=O)N2C[C@H](OCC(C)C)C[C@H]2C(=O)N2C[C@H](OCCCNC(=N)N)C[C@H]2C(=O)N2C[C@H](OCCCNC(=N)N)C[C@H]2C(=O)N2C[C@H](OCC(C)C)C[C@H]2C(N)=O)N(C(=O)CNC(=O)c2ccc(-c3c4ccc(=O)cc-4oc4cc(O)ccc34)c(C(=O)O)c2)C1 [Example P14-LRR] (X1-G[Hyp](Isobutyl)[Hyp](Propyl(3-guanidino))[Hyp](Propyl(3-guanidino))[Hyp](Isobutyl)[Hyp](Propyl(3-guanidino))[Hyp](Propyl(3-guanidino))[Hyp](Isobutyl)[Hyp](Propyl(3-guanidino))[Hyp](Propyl(3-guanidino))[Hyp](Isobutyl)[Hyp](Propyl(3-guanidino))[Hyp](Propyl(3-guanidino))[Hyp](Isobutyl)-NH2; N-terminus and C-terminus assumed)
[1]; 191112
  MIC: 8 µM (≈ 23.8 µg/mL)
[2]
  MIC: 4 µM (≈ 11.9 µg/mL)
[3]
  MIC: >32 µM
[4]; ATCC 6538
  MIC: 16 µM (≈ 47.6 µg/mL)
[5]; NRS 382
  MIC: 32 µM (≈ 95.2 µg/mL)
[6]; 50573
  MIC: 16 µM (≈ 47.6 µg/mL)
[7]; 1747
  MIC: 1 µM (≈ 2.98 µg/mL)
[8]; 19606
  MIC: 2 µM (≈ 5.95 µg/mL)
[9]; NRS 101
  MIC: 2 µM (≈ 5.95 µg/mL)
[11]; 48982
  MIC: 32 µM (≈ 95.2 µg/mL)
[12]; 31041
  MIC: 32 µM (≈ 95.2 µg/mL)
[15]; 1605
  MIC: 1 µM (≈ 2.98 µg/mL)
[16]; 31040
  MIC: 32 µM (≈ 95.2 µg/mL)
[17]; 21922
  MIC: 4 µM (≈ 11.9 µg/mL)
[18]; 1706
  MIC: >32 µM
[19]; NRS 384
  MIC: 16 µM (≈ 47.6 µg/mL)
[20]; 700221
  MIC: 2 µM (≈ 5.95 µg/mL)
[21]
  MIC: 32 µM (≈ 95.2 µg/mL)
[22]; 1134
  MIC: 32 µM (≈ 95.2 µg/mL)
[23]; LT2
  MIC: 16 µM (≈ 47.6 µg/mL)
[25]; NRS 383
  MIC: 32 µM (≈ 95.2 µg/mL)

## CN[C@H](CC(C)C)C(=O)N[C@H]1C(=O)N[C@@H](CC(N)=O)C(=O)N[C@H]2C(=O)N[C@H]3C(=O)N[C@H](C(=O)N[C@H](C(=O)O)c4cc(O)cc(O)c4-c4cc3ccc4O)[C@H](O)c3ccc(c(Cl)c3)Oc3cc2cc(c3O[C@@H]2O[C@H](CO)[C@@H](O)[C@H](O)[C@H]2O[C@H]2C[C@](C)(N)[C@H](O)[C@H](C)O2)Oc2ccc(cc2Cl)[C@H]1O [Vancomycin, vancomycin]
[26]
  MIC: > 32 µM
[27]
  MIC: > 32 µM
[28]
  MIC: > 32 µM
[29]
  MIC: 4 µM (≈ 5.8 µg/mL)
[30]
  MIC: > 32 µM
[31]
  MIC: > 32 µM
[32]
  MIC: 4 µM (≈ 5.8 µg/mL)
[33]
  MIC: 8 µM (≈ 11.6 µg/mL)
[34]
  MIC: 32 µM (≈ 46.4 µg/mL)
[35]
  MIC: 1 µM (≈ 1.45 µg/mL)
[36]
  MIC: > 32 µM
[13]; Staphylococcus aureus, RN4220
  MIC: 0.5 µM (≈ 0.725 µg/mL)
[14]; Shigella flexneri
  MIC: > 32 µM
[37]
  MIC: 1 µM (≈ 1.45 µg/mL)
[38]
  MIC: > 32 µM
[39]
  MIC: 2 µM (≈ 2.9 µg/mL)
[40]
  MIC: > 32 µM
[41]
  MIC: > 32 µM
[42]
  MIC: 0.5 µM (≈ 0.725 µg/mL)
[43]
  MIC: > 32 µM
[44]
  MIC: > 32 µM
[45]
  MIC: > 32 µM
[46]
  MIC: 0.5 µM (≈ 0.725 µg/mL)
[47]
  MIC: > 32 µM
[48]
  MIC: > 32 µM

## gentamicin
[1]; L. monocytogenes 191112, enteric pathogens
  MIC: 0.5 µM
[2]; S. enteritidis, enteric pathogens
  MIC: 0.25 µM
[3]; K. pneumonia NR 41928, ESKAPE pathogens
  MIC: 1 µM
[4]; S. aureus ATCC 6538
  MIC: 0.125 µM
[5]; S. aureus NRS 382
  MIC: 0.5 µM
[6]; P. aeruginosa 50573, ESKAPE pathogens
  MIC: 0.25 µM
[7]; A. baumannii 1747
  MIC: 0.25 µM
[8]; A baumannii 19606
  MIC: 16 µM
[9]; S. epidermidis NRS 101
  MIC: 32 µM
[10]
  MIC: 0.5 µM
[11]; P. aeruginosa 48982
  MIC: >32 µM
[12]; P. aeruginosa 31041
  MIC: 32 µM
[13]
  MIC: 0.5 µM
[14]
  MIC: 0.5 µM
[15]; A. baumannii 1605, ESKAPE pathogens
  MIC: >32 µM
[16]; P. aeruginosa 31040
  MIC: 16 µM
[17]; E. coli 21922, enteric pathogens
  MIC: 2 µM
[18]; K. pneumoniae 1706, ESKAPE pathogens
  MIC: 2 µM
[19]; S. aureus NRS 384, ESKAPE pathogens
  MIC: 0.5 µM
[20]; E. faecium 700221, ESKAPE pathogens
  MIC: >32 µM
[21]; K. pneumonia NR 41920, ESKAPE pathogens
  MIC: 1 µM
[22]; E. cloacae 1134, ESKAPE pathogens
  MIC: 0.5 µM
[23]; S. typhimurium LT2, enteric pathogens
  MIC: 0.5 µM
[24]
  MIC: 0.5 µM
[25]; S. aureus NRS 383
  MIC: >32 µM
